Reference: patent publication US20250090441A1, “ANTI-CARIES PEPTIDES WITH ANTIMICROBIAL AND REMINERALIZING PROPERTIES AND METHODS THEREOF” (THE UNIVERSITY OF HONG KONG, priority 2023, published 2025)
Bridges are numbered along the chain shown (N, C = ends). Where no end group is shown, it is not given here.

Assays:
[1] = Remineralizing effects on enamel, chemical pH cycling model (SEM-EDS, Micro-CT, XRD); set-up: species or system human; settings: 160 μM twice daily, pH cycling 8 days, n = 8; for Calcium to phosphate molar ratio: EDS; for Lesion depth / Mineral loss: Micro-CT
Protocol: Ten enamel slices were cut from extracted sound human molars. Each slice was separated into four blocks. A total of 40 enamel blocks were prepared. Then the surface of the enamel block was half-covered by an acid-resistant varnish. The exposed half was the experimental surface, and the varnished half was the internal control. Before use, all the enamel blocks were sterilized via autoclave (Niu et al. 2021d; Yu et al. 2018).
The pH-cycling procedure (16 h-demineralization at pH 4.5 and 8 h-remineralization at pH 7.0) was performed to enamel blocks for 8 days. The formula for demineralizing/remineralizing solution was employed from a previous study (Yu et al. 2018). The enamel blocks from the same enamel slice were treated twice daily with 160 μM GAPI (GAPI Group), 160 μM gallic acid (GA Group), 160 μM polyphemusin-I (PI Group), and sterile deionized water (Water Group). All enamel blocks after pH cycling were involved in sequent assessments.
The structure of the enamel surface was examined using SEM (n=8 per group) (Niu et al. 2021d). The elemental analysis of enamel surface was conducted using affiliated energy-dispersive X-ray spectroscopy (EDS). The calcium to phosphorus molar ratio was calculated (Niu et al. 2022). The mineral loss and lesion depth on the enamel blocks were assessed using microcomputed tomography (Micro-CT) (1076, SkyScan, Antwerp, Belgium) (n=8 per group) (Niu et al. 2022). The diffraction patterns of the enamel blocks were evaluated using X-ray diffraction analysis (XRD) (Rigaku SmartLab 9 kW, […]) (n=2 per group) (Yu et al. 2018).

[2] = system: Candida albicans, ATCC 90028; assay type: cell-based; settings: μM
Protocol: (§1) The antimicrobial properties of synthesized peptides against bacteria and fungi were evaluated using minimum inhibitory concentration (MIC) and minimum bactericidal/fungicidal concentration (MBC/MFC) tests (Wiegand et al. 2008). The tested species include Streptococcus mutans, UA159; Lacticaseibacillus casei, American Type Culture Collection (ATCC) 334; and Candida albicans, ATCC 90028. A 10 μL aliquot of bacterial culture (10^6 CFU/mL) in brain heart infusion (BHI) broth was added to 100 μL serial two-fold dilutions of experimental solutions. The optical density values at 660 nm were measured after 18 h of incubation. To determine the MBC, 10 μL of bacterial culture was taken from the well of MIC, and wells before and after the well of MIC, and transferred to blood agar. The test protocol for fungi was similar: the culture medium was a Roswell Park Memorial Institute (RPMI) 1640 Medium, the absorbance was measured at 520 nm, and Sabouraud dextrose agar was used for the MFC test. Chlorhexidine and medium were used as the positive and negative controls.

[3] = system: Streptococcus mutans, UA159; experiment: MIC and MBC/MFC test; assay type: cell-based; settings: Streptococcus mutans (UA159); μM
Protocol: as §1

[4] = system: Lacticaseibacillus casei, ATCC 334; experiment: MIC and MBC/MFC test; assay type: cell-based; settings: μM
Protocol: as §1

Row | Compound | Calcium to phosphate molar ratio [1] | Lesion depth [1] | Mineral loss [1] | MBC/MFC [2] | MIC [2] | MBC/MFC [3] | MIC [3] | MBC/MFC [4] | MIC [4]
1 | O=C(O)c1cc(O)c(O)c(O)c1 [GA, Gallic Acid] | 1.82 ± 0.08 | 62 ± 12 μm | 0.88 ± 0.24 gHApcm^−3 | – | – | – | – | – | –
2 | Polyphemusin-I (RRWCFRVCYRGFCYRKCR; disulfide 8-13, 4-17) [PI, reference compound] | 1.70 ± 0.06 | 96 ± 9 μm | 1.32 ± 0.26 gHApcm^−3 | 0.6 | 0.3 | 80 | 20 | 160 | 20
